In patent US20080146617A1, “Methods of treating inflammatory diseases” (Roche Palo Alto LLC, priority 2006, published 2008):

Columns and labels:
Test in all cases: KinomeScan kinase profiling
Assay type in all cases: binding
[1] = biological target: T1, PCTK1 (Homo sapiens, UniProt Q00536)
T1 construct: purchased Ambit Biosciences (San Diego, Calif.)

[2] = biological target: T2, FGFR3 (Homo sapiens, UniProt P22607)
T2 construct: purchased Ambit Biosciences (San Diego, Calif.)

[3] = biological target: T3, STK10 (Homo sapiens, UniProt O94804)
T3 construct: purchased Ambit Biosciences
From the text: (§1) The selectivity of a given CK1δ, CK1ε or CK1δ-CK1ε inhibitor compound can be determined by testing the compound against a panel of known kinases. An example of such a kinase profiling technology is the “KinomeScan” from Ambit Biosciences in which compounds can be screened for their modulatory activities against more than 200 known kinases.

[4] = biological target: T4, NEK2 (Homo sapiens, UniProt P51955)
T4 construct: purchased Ambit Biosciences (San Diego, Calif.)
From the text: as §1

[5] = biological target: T5, EPHA5 (Homo sapiens, UniProt P54756)
T5 construct: purchased Ambit Biosciences (San Diego, Calif.)
From the text: as §1

[6] = biological target: T6, CLK3 (Homo sapiens, UniProt P49761)
T6 construct: purchased Ambit Biosciences (San Diego, Calif.)
From the text: as §1

[7] = biological target: T7, ABL2 (Homo sapiens, UniProt P42684)
T7 construct: purchased Ambit Biosciences (San Diego, Calif.)
From the text: as §1

[8] = biological target: T8, EPHA7 (Homo sapiens, UniProt Q15375)
T8 construct: purchased Ambit Biosciences (San Diego, Calif.)
From the text: as §1

[9] = biological target: T9, YES (Homo sapiens, UniProt P07947)
T9 construct: purchased Ambit Biosciences (San Diego, Calif.)
From the text: as §1

[10] = biological target: T10, PKMYT1 (Homo sapiens, UniProt Q99640)
T10 construct: purchased Ambit Biosciences (San Diego, Calif.)
From the text: as §1

[11] = biological target: T11, NEK6 (Homo sapiens, UniProt Q9HC98)
T11 construct: purchased Ambit Biosciences (San Diego, Calif.)
From the text: as §1

[12] = biological target: T12, TXK (Homo sapiens, UniProt P42681)
T12 construct: purchased Ambit Biosciences
From the text: as §1

[13] = biological target: T13, TRKA (Homo sapiens, UniProt P04629)
T13 construct: purchased Ambit Biosciences
From the text: as §1

[14] = biological target: T14, EPHA6 (Homo sapiens, UniProt Q9UF33)
T14 construct: purchased Ambit Biosciences (San Diego, Calif.)
From the text: as §1

[15] = biological target: T15, PDGFRB (Homo sapiens, UniProt P09619)
T15 construct: purchased Ambit Biosciences (San Diego, Calif.)
From the text: as §1

[16] = biological target: T16, EPHB1 (Homo sapiens, UniProt P54762)
T16 construct: purchased Ambit Biosciences (San Diego, Calif.)
From the text: as §1

[17] = biological target: T17, TIE2 (Homo sapiens, UniProt Q02763)
T17 construct: purchased Ambit Biosciences
From the text: as §1

[18] = biological target: T18, p38-gamma (Homo sapiens, UniProt P53778)
T18 construct: purchased Ambit Biosciences (San Diego, Calif.)
From the text: as §1

[19] = biological target: T19, ACK1 (Homo sapiens, UniProt Q07912)
T19 construct: purchased Ambit Biosciences (San Diego, Calif.)
From the text: as §1

[20] = biological target: T20, INSR (Homo sapiens, UniProt P06213)
T20 construct: purchased Ambit Biosciences (San Diego, Calif.)
From the text: as §1

[21] = biological target: T21, PHKG2 (Homo sapiens, UniProt P15735)
T21 construct: purchased Ambit Biosciences (San Diego, Calif.)
From the text: as §1

[22] = biological target: T22, BIKE (Homo sapiens, UniProt Q9NSY1)
T22 construct: purchased Ambit Biosciences (San Diego, Calif.)
From the text: as §1

[23] = biological target: T23, STK17A (Homo sapiens, UniProt Q9UEE5)
T23 construct: purchased Ambit Biosciences
From the text: as §1

[24] = biological target: T24, IGF1R (Homo sapiens, UniProt P08069)
T24 construct: purchased Ambit Biosciences (San Diego, Calif.)
From the text: as §1

[25] = biological target: T25, PAK3 (Homo sapiens, UniProt O75914)
T25 construct: purchased Ambit Biosciences (San Diego, Calif.)
From the text: as §1

[26] = biological target: T26, DAPK3 (Homo sapiens, UniProt O43293)
T26 construct: purchased Ambit Biosciences (San Diego, Calif.)
From the text: as §1

[27] = biological target: T27, ITK (Homo sapiens, UniProt Q08881)
T27 construct: purchased Ambit Biosciences (San Diego, Calif.)
From the text: as §1

[28] = biological target: T28, ABL1 (Homo sapiens, UniProt P00519)
T28 construct: purchased Ambit Biosciences (San Diego, Calif.)
From the text: as §1

[29] = biological target: T29, FER (Homo sapiens, UniProt P16591)
T29 construct: purchased Ambit Biosciences (San Diego, Calif.)
From the text: as §1

[30] = biological target: T30, CAMK1D (Homo sapiens, UniProt Q8IU85)
T30 construct: purchased Ambit Biosciences (San Diego, Calif.)
From the text: as §1

[31] = biological target: T31, FLT4 (Homo sapiens, UniProt P35916)
T31 construct: purchased Ambit Biosciences (San Diego, Calif.)
From the text: as §1

[32] = biological target: T32, RAF1 (Homo sapiens, UniProt P04049)
T32 construct: purchased Ambit Biosciences
From the text: as §1

[33] = biological target: T33, FLT3 (Homo sapiens, UniProt P36888)
T33 construct: purchased Ambit Biosciences (San Diego, Calif.)
From the text: as §1

[34] = biological target: T34, PAK1 (Homo sapiens, UniProt Q13153)
T34 construct: purchased Ambit Biosciences (San Diego, Calif.)
From the text: as §1

[35] = biological target: T35, ULK3(mouse) (Mus musculus, UniProt Q3U3Q1)
T35 construct: purchased Ambit Biosciences (San Diego, Calif.)
From the text: as §1

[36] = biological target: T36, MARK2 (Homo sapiens, UniProt Q7KZI7)
T36 construct: purchased Ambit Biosciences (San Diego, Calif.)
From the text: as §1

[37] = biological target: T37, CLK4 (Homo sapiens, UniProt Q9HAZ1)
T37 construct: purchased Ambit Biosciences (San Diego, Calif.)
From the text: as §1

[38] = biological target: T38, EPHB4 (Homo sapiens, UniProt P54760)
T38 construct: purchased Ambit Biosciences (San Diego, Calif.)

[39] = biological target: T39, EPHA2 (Homo sapiens, UniProt P29317)
T39 construct: purchased Ambit Biosciences (San Diego, Calif.)

[40] = biological target: T40, PAK4 (Homo sapiens, UniProt O96013)
T40 construct: purchased Ambit Biosciences (San Diego, Calif.)
T40 sequence (O96013 whole entry): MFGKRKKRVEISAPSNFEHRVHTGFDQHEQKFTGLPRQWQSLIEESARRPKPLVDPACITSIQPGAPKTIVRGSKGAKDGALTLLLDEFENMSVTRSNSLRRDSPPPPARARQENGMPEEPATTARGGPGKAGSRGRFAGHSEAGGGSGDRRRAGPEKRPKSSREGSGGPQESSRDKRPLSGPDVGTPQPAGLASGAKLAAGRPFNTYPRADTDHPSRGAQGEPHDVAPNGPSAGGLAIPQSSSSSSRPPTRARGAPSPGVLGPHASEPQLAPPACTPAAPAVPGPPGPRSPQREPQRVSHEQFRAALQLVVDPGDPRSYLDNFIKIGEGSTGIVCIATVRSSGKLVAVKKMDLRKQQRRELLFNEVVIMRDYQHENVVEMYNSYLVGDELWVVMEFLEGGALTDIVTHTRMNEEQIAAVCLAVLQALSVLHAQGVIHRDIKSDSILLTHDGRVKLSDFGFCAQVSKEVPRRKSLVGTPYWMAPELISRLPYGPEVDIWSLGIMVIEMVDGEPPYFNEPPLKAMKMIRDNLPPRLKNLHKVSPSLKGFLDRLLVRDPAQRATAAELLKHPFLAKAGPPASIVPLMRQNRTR

T7 sequence (P42684 whole entry): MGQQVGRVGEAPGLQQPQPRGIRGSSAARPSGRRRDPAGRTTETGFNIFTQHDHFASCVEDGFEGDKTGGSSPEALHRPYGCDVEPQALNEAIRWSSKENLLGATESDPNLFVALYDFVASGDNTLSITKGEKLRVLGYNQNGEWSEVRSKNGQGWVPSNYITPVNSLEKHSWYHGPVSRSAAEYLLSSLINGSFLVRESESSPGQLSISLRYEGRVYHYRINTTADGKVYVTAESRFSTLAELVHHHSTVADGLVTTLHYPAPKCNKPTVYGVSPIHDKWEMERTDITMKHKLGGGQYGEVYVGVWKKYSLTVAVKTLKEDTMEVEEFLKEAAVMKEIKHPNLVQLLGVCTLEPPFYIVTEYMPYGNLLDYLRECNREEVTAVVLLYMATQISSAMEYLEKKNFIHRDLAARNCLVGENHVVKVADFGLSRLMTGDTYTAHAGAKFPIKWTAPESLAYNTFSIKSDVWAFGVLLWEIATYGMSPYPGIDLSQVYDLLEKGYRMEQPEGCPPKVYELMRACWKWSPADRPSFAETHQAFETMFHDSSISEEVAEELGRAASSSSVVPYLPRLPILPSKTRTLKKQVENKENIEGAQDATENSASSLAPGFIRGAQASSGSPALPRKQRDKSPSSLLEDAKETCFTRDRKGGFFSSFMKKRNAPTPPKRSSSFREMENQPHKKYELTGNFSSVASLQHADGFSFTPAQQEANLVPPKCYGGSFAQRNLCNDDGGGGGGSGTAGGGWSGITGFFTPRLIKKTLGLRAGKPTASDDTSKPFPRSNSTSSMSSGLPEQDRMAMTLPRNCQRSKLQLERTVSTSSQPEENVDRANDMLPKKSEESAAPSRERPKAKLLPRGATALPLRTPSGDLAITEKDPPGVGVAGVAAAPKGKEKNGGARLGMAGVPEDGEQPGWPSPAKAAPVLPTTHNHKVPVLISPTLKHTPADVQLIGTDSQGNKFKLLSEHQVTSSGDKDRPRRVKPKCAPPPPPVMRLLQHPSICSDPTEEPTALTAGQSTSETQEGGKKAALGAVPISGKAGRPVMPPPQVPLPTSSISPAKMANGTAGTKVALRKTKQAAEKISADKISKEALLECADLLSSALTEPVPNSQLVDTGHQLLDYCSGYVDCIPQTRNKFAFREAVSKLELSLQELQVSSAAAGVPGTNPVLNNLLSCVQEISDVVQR
T12 sequence (P42681 whole entry): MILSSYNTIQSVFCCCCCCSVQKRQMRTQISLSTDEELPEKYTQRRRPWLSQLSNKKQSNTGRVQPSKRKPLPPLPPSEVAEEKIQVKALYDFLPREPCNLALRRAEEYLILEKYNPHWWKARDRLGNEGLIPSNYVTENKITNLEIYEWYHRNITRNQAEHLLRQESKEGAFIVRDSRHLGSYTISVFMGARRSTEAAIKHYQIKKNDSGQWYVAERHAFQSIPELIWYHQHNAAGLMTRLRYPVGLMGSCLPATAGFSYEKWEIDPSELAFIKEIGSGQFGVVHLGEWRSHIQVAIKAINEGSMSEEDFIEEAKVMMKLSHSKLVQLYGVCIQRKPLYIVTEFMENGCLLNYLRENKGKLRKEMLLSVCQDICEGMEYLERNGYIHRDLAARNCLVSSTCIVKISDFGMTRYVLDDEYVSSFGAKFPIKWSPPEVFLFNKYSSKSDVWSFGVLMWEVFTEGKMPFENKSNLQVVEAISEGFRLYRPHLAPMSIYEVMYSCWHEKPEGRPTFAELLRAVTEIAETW
T19 sequence (Q07912 whole entry): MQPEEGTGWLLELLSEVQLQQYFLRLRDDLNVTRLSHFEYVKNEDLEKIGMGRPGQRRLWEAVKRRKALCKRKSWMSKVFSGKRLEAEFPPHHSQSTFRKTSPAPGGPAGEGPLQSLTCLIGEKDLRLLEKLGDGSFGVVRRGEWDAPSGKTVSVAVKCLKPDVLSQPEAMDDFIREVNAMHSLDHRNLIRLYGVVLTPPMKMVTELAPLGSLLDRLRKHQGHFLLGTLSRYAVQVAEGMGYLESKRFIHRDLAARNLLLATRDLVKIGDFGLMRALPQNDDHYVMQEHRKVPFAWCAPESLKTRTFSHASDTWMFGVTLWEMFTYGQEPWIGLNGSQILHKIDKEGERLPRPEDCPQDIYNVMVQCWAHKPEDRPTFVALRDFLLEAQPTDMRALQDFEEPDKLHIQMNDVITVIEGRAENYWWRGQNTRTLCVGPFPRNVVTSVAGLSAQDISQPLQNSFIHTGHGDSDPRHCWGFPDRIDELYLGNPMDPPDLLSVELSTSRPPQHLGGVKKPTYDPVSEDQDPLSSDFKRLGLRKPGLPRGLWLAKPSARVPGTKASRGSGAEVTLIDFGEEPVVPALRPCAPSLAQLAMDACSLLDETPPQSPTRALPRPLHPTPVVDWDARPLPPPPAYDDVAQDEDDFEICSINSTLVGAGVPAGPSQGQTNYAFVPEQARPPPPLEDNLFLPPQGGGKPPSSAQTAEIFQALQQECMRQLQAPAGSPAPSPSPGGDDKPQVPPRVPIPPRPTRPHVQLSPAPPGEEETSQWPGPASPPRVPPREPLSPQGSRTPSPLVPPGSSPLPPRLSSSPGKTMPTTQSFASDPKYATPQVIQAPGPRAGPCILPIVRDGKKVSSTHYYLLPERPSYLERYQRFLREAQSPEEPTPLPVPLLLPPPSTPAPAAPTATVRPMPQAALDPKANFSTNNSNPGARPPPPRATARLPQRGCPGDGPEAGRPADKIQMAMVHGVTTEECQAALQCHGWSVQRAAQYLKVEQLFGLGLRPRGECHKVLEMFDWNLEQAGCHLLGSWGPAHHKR
T11 sequence (Q9HC98 whole entry): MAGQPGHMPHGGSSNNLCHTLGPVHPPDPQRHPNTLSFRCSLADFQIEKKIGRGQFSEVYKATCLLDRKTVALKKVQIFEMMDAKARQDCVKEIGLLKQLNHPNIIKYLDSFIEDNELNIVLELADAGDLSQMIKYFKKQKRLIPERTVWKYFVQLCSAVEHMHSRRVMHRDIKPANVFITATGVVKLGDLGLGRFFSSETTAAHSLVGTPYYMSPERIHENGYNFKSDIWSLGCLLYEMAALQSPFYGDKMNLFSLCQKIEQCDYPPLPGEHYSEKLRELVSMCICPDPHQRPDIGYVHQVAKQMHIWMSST
T33 sequence (P36888 27-993): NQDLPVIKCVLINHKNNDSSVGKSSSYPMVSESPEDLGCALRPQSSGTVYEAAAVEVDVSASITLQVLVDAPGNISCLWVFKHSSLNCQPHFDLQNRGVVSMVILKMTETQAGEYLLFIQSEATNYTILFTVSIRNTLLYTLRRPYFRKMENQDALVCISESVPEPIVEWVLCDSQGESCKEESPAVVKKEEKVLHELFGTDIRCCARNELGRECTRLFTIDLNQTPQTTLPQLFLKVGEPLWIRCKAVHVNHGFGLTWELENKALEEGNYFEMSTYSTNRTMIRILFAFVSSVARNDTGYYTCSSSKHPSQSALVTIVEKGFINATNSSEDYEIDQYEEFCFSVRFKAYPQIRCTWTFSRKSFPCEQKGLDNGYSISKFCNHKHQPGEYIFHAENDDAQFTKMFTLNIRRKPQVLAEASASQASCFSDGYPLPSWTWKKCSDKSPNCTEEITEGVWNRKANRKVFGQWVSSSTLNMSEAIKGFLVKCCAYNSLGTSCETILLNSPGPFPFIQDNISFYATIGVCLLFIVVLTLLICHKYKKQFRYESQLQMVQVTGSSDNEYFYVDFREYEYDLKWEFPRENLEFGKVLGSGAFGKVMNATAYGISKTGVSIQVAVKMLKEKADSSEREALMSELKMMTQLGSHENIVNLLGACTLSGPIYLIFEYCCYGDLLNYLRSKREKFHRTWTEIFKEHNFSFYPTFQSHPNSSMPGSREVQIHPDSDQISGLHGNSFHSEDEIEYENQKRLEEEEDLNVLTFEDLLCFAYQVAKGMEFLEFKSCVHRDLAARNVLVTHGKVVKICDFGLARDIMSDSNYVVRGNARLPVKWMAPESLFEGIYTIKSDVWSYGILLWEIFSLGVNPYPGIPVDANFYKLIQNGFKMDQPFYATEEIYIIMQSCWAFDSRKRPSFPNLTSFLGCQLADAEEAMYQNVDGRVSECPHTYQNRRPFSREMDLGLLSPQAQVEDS
T4 sequence (P51955 whole entry): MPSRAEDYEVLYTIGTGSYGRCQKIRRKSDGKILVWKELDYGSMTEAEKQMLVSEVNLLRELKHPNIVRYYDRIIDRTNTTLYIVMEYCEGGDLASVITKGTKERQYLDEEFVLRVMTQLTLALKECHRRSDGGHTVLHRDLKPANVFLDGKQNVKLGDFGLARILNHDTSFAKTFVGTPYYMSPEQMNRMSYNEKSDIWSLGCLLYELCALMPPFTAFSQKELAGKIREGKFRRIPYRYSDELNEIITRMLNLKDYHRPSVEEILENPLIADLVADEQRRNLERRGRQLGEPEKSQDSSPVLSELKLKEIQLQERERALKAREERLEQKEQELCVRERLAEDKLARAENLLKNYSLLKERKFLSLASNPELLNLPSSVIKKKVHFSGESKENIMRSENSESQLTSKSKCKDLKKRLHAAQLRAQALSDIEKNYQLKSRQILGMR

SMILES | inhibition at 10 µM [1] | inhibition at 10 µM [2] | inhibition at 10 µM [3] | inhibition at 10 µM [4] | inhibition at 10 µM [5] | inhibition at 10 µM [6] | inhibition at 10 µM [7] | inhibition at 10 µM [8] | inhibition at 10 µM [9] | inhibition at 10 µM [10] | inhibition at 10 µM [11] | inhibition at 10 µM [12] | inhibition at 10 µM [13] | inhibition at 10 µM [14] | inhibition at 10 µM [15] | inhibition at 10 µM [16] | inhibition at 10 µM [17] | inhibition at 10 µM [18] | inhibition at 10 µM [19] | inhibition at 10 µM [20] | other results
NC(=O)c1ccc(-c2nc(-c3ccc4c(c3)OCO4)c(-c3ccccn3)[nH]2)cc1 [SB431542, 4-(4-benzo-[1,3]dioxol-5-yl-5-pyridin-2-yl-1H-imidazol-2-yl)benzamide] | < 50% | < 50% | < 50% | < 50% | < 50% | < 50% | < 50% | < 50% | < 50% | < 50% | < 50% | < 50% | < 50% | < 50% | < 50% | < 50% | < 50% | < 50% | < 50% | < 50% | inhibition at 10 µM [21]: < 50%; inhibition at 10 µM [22]: < 50%; inhibition at 10 µM [23]: < 50%; inhibition at 10 µM [24]: < 50%; inhibition at 10 µM [25]: < 50%; inhibition at 10 µM [26]: < 50%; inhibition at 10 µM [27]: < 50%; inhibition at 10 µM [28]: < 50%; inhibition at 10 µM [29]: < 50%; inhibition at 10 µM [30]: < 50%; inhibition at 10 µM [31]: < 50%; inhibition at 10 µM [32]: < 50%; inhibition at 10 µM [33]: < 50%; inhibition at 10 µM [34]: < 50%; inhibition at 10 µM [35]: < 50%; inhibition at 10 µM [36]: < 50%; inhibition at 10 µM [37]: < 50%; inhibition at 10 µM [38]: < 50%; inhibition at 10 µM [39]: < 50%; inhibition at 10 µM [40]: < 50%
NC(=O)c1ccc(-c2nc(-c3ccc4c(c3)OCCO4)c(-c3ccccn3)[nH]2)cc1 [D4476, 4-[4-(2,3-Dihydro-benzo[1,4]dioxin-6-yl)-5-pyridin-2-yl-1H-imidazol-2-yl]benzamide] | < 50% | < 50% | < 50% | < 50% | < 50% | < 50% | < 50% | < 50% | < 50% | < 50% | < 50% | < 50% | < 50% | < 50% | < 50% | < 50% | < 50% | < 50% | < 50% | < 50% | inhibition at 10 µM [21]: < 50%; inhibition at 10 µM [22]: < 50%; inhibition at 10 µM [23]: < 50%; inhibition at 10 µM [24]: < 50%; inhibition at 10 µM [25]: < 50%; inhibition at 10 µM [26]: < 50%; inhibition at 10 µM [27]: < 50%; inhibition at 10 µM [28]: < 50%; inhibition at 10 µM [29]: < 50%; inhibition at 10 µM [30]: < 50%; inhibition at 10 µM [31]: < 50%; inhibition at 10 µM [32]: < 50%; inhibition at 10 µM [33]: < 50%; inhibition at 10 µM [34]: < 50%; inhibition at 10 µM [35]: < 50%; inhibition at 10 µM [36]: < 50%; inhibition at 10 µM [37]: < 50%; inhibition at 10 µM [38]: < 50%; inhibition at 10 µM [39]: < 50%; inhibition at 10 µM [40]: < 50%
